Experimental data as given in patent US20140378502A1, “Par1 Inhibitors for Use in the Treatment or Prevention of Paramyxoviridae Infections” (Université Laval, priority 2011, published 2014).
Where no end group is shown, it is not given here.

Experiments:
hMPV [1] = details: background statement; cited from earlier work
hMPV [2] = details: background statement; cited from earlier work; remark: listed apart in the source
hMPV [3] = details: background statement; cited from earlier work; remark: listed apart in the source
hMPV strain C-85473 [4] = experiment: hMPV-infected BALB/c mice, five-day pre-exposure prophylactic treatment regimen (experiment 2); assay type: in vivo; details: 500 μM, 5-day treatment; for pulmonary inflammation (histopathology): infected treated vs infected untreated mice; for pulmonary viral titers: vs other infected groups; for weight loss (and symptoms): hMPV-infected mice, vs infected untreated mice
Method: (§1) hMPV viral titers were determined by 10-fold serial dilutions of virus in 24-well plates containing LLC-MK2 cells. Before infection, cells were washed twice with phosphate-buffered saline (PBS) to remove residual serum proteins that could inhibit trypsin activity. Infected plates were incubated at 37° C. with 5% CO2 and replenished with 1 μl of fresh trypsin (0.0002%) every other day. hRSV viral titers were determined by 10-fold serial dilutions of virus in 24-well plates containing Hep2 cells. Before infection, cells were washed twice with phosphate-buffered saline (PBS). Infected plates were incubated at 37° C. with 5% CO2. On day 4 post infection, plates were fixed with 80% acetone at −20° C. for 30 min, washed with PBS and air dried. The presence of hRSV was detected by an immuno-staining assay using a monoclonal goat Anti-Respiratory Syncytial Virus primary antibody and a donkey anti-Goat IgG Secondary Antibody, HRP conjugate (both from Cederlane). Virus titers were reported as 50% tissue culture infectious doses (TCID50) per ml, per mouse or per gram of lung. The lower limit of detection of the assay is 10^2 TCID50 per gram. TCID50 were calculated by the Reed and Muench method.
(§2) In the second protocol, groups of 18 4-6-week-old BALB/c mice (Charles River Laboratories) were infected intranasally with 6-8×10^5 TCID50 hMPV strain C-85473 in 25 μl of OptiMEM™ supplemented with the PAR-1 agonist, PAR-1 antagonist or control peptide at a final concentration of 500 μM. As infected controls, groups of 18 4-6-week-old BALB/c mice (Charles River Laboratories) were infected intranasally with 6-8×10^5 TCID50 hMPV strain C-85473 in 25 μl of OptiMEM™ supplemented with H2O or DMSO. As uninfected control, groups 18 mice were sham infected with the concentrated supernatant of non-infected LLC-MK2 cells supplemented with the PAR-1 agonist, PAR-1 antagonist or control peptide at a final concentration of 500 μM or DMSO. On day 1 through 4 post infection, animals were treated with the PAR-1 agonist, PAR-1 antagonist or control peptide at a final concentration of 50 μM or 500 μM, or H2O or DMSO for control groups, resulting in a 5-day treatment in total. Animals were housed in groups of five and three in micro-isolator cages. The animals were evaluated on a daily basis for mortality, weight loss, and the presence of symptoms. On day 5 post-infection, lungs were removed from six mice per group for the evaluation of viral titres by cell culture and cytokine expression by Iuminex™. Lungs of another six mice per group were removed for histopathological analysis.
(§3) On day 5 post infection, six animals per group were sacrificed, the lungs were removed and snap frozen in liquid nitrogen. Lungs were weighed, homogenized in 1 ml of PBS, centrifuged (2000 rpm, 10 min) and the supernatant was used to infect LLC-MK2 monolayers (in case of hMPV-infected mice) or Hep2 monolayer (in case of hRSV-infected mice) for virus titration as reported in the section “Viral titers”.
(§4) 250 μL of lung homogenates (see section “Pulmonary viral titers”) were added to 250 μl 50 mM KPO4, pH 6.0 buffer containing 0.2% CHAPS {3-[(3-cholamidopropyl)-dimethylammonio]1-1-propanesulfonate} (Sigma) and 0.2% of a protease inhibitor cocktail (Sigma) and stored at −20° C. until the day of analysis. Samples were centrifuged at 13,800×g for 10 min at 4° C., and 50 μl of the supernatant was used for cytokine quantification. Levels of interleukin-4, IL-6, IL-12(p40), IL-12(p70), IFN-γ, KC, MCP-1, MIP-1α, RANTES were determined by the use of a 9-plex mouse bead kits (BioRad™/Millipore™) according to the manufacturer's instructions. Experiments were performed in a 96-well filter plate and results were analysed with the Luminex™ system (Qiagen™).
On day 5 post infection, 6 animals per group were sacrificed, and the lungs were collected at specified time points and fixed with 4% buffered formalin. […]

hMPV strain C-85473 [5] = experiment: hMPV-infected BALB/c mice, five-day treatment started simultaneously or 24 h post infection (experiment 3); assay type: in vivo; details: 500 μM
Method: as §1
In a third protocol, Two groups of 12 4-6-week-old BALB/c mice (Charles River Laboratories) were infected intranasally with 6×105 TCID50 hMPV strain C-85473 in 25 μl of OptiMEM™, supplemented with the PAR-1 agonist or PAR-1 antagonist at a final concentration of 500 μM and treated on days 1 through 4 post infection with the PAR-1 agonist or PAR-1 antagonist (500 μM). Two more groups of 4-6-week-old BALB/c mice (Charles River Laboratories) were infected intranasally with 6×105 TCID50 hMPV strain C-85473 in 25 μl of OptiMEM™. These groups were treated from day 1 though 5 post infection (treatment delayed 24 h post-infection) with the PAR-1 agonist or PAR-1 antagonist (500 μM). As infected controls, groups of 12 4-6-week-old BALB/c mice (Charles River Laboratories) were infected intranasally with 4×105 TCID50 hMPV strain C-85473 in 25 μl of OptiMEM supplemented with DMSO. All animals were housed in groups of four in micro-isolator cages. The animals were evaluated on a daily basis for mortality, weight loss, and the presence of symptoms. On day 5 post-infection, lungs were removed from six mice per group for the evaluation of viral titres by cell culture
as §3
(§5) Differences in weight loss between groups was analysed by repeated measures two-way ANOVA. Viral titers, cytokine levels and mean histopathology scores were analysed using student t-test.

[6] = Uninfected (sham infected) mice treated for 5 days, check for toxic and non specific effects; assay type: in vivo, BALB/c mice; details: 500 μM
Method: as §2, with “Lungs of another six mice per group were removed for histopathological analysis.” left out
as §4

hMPV strain C-85473 [7] = experiment: hMPV-infected BALB/c mice, three-day prophylactic treatment regimen (experiment 1); assay type: in vivo; details: 3-day treatment; for mice that reached the humane endpoint: none in the untreated group; for pulmonary viral titers: day 5 post hMPV infection, vs diluted DMSO or H2O treated mice; for pulmonary viral titers / cytokine expression in the lungs: 50 or 500 μM; for cytokine expression in the lungs: day 5 post infection, Luminex; for weight loss: hMPV-infected mice, 50 or 500 μM intranasal, vs infected untreated mice (H2O or DMSO), followed 14 days
Method: as §1
In the first protocol, groups of 12 4-6-week-old female BALB/c mice (Charles River Laboratories) were infected intranasally with 4-7×10^5 TCID50 hMPV strain C-85473 in 25 μl of OptiMEM™ supplemented with the PAR-1 or PAR-1 antagonist at a final concentration of 50 μM or 500 μM. As infected controls, groups of 12 4-6-week-old BALB/c mice (Charles River Laboratories) were infected intranasally with 4-7×10^5 TCID50 hMPV strain C-85473 in 25 μl of OptiMEM™ supplemented with H2O or DMSO. As an uninfected control, 12 mice were sham infected with the concentrated supernatant of non-infected LLC-MK2 cells supplemented with DMSO. On day 1 and 2 post infection, animals were treated with the PAR-1 agonist or PAR-1 antagonist at a final concentration of 50 μM or 500 μM, or H2O or DMSO for control groups, resulting in a 3-day treatment in total. All animals were housed in groups of four in micro-isolator cages. The animals were evaluated on a daily basis for mortality, weight loss, and the presence of symptoms. On day 5 post-infection, lungs were removed from six mice per group for the evaluation of viral titres by cell culture and cytokine expression by Luminex™.
as §3, §4, §5

hRSV strain 15 595 = experiment: hRSV Balb/C mouse model, five-day treatment (experiment 4); assay type: in vivo; details: day 5 post hRSV infection, 500 μM, 5-day treatment, vs untreated and PAR-1 agonist treated mice
Method: The clinical hRSV A strain 15 959 that was passed nine times on Hep2 cells, was grown on Hep2 cells in MEM™ (Life Technologies) supplemented with 2% FBS (Wisent). Hep2 cells were infected with 10 TCID50/Hep2 cell of hRSV 15 959 and plated out into one flask (150 cm^2) until 60% cytopathic effects were observed. Infected monolayers and supernatants were recovered with a cell scraper and sonicated. The pooled preparation was centrifuged (1200 r.p.m., 10 min) to remove cellular debris. Supernatant was aliquoted and stored at −80° C. The same protocol was followed for a flask of uninfected cells for control mice.
hMPV viral titers were determined by 10-fold serial dilutions of virus in 24-well plates containing LLC-MK2 cells. […] Infected plates were incubated at 37° C. with 5% CO2 and replenished with 1 μl of fresh trypsin (0.0002%) every other day. hRSV viral titers were determined by 10-fold serial dilutions of virus in 24-well plates containing Hep2 cells. […] The presence of hRSV was detected by an immuno-staining assay using a monoclonal goat Anti-Respiratory Syncytial Virus primary antibody and a donkey anti-Goat IgG Secondary Antibody, HRP conjugate (both from Cederlane). […] TCID50 were calculated by the Reed and Muench method. […]
Differences in weight loss between groups was analysed by repeated measures two-way ANOVA. […]

[8] = 5-day prophylactic treatment started simultaneously with infection, vs infected/untreated group (FIG. 12)
[9] = 5-day treatment started 24 h post infection, vs infected/untreated mice (FIG. 13)

Compound | effect in hMPV-infected mice (hMPV [2]) | pulmonary inflammation (histopathology) (hMPV strain C-85473 [4]; day 5 post hMPV infection) | pulmonary viral titers (hMPV strain C-85473 [4]; day 5 post infection) | weight loss (and symptoms) (hMPV strain C-85473 [4]) | weight loss (hMPV strain C-85473 [5]; [8]) | weight loss (hMPV strain C-85473 [5]; [9]) | weight loss or symptoms in uninfected mice [6] | pulmonary viral titers (hMPV strain C-85473 [7]) | cytokine expression in the lungs (hMPV strain C-85473 [7]) | weight loss (hMPV strain C-85473 [7]) | other results
NC(=O)c1ncn([C@@H]2O[C@H](CO)[C@@H](O)[C@H]2O)n1 [Ribavirin] | effective | – | – | – | – | – | – | – | – | – | effect in a lung transplant recipient with hMPV pneumonia (hMPV [1]): effective; in vitro activity against hMPV (hMPV [3]): good in vitro activity
TFLLR-NH2 [PAR-1 agonist] | – | No significant difference | No significant difference | no significant difference in weight loss | regained weight less rapidly than the control | regained their weight more slowly than infected/untreated mice | In none of the uninfected groups significant weight loss or symptoms were observed | No significant difference | dose-dependent increases in IL-6, IL-12(p40) and MCP-1 | dose-dependent increase in weight loss | lung histopathological inflammation criteria compared to uninfected, untreated mice (hMPV strain C-85473 [4]; day 5 post hMPV infection): increases in all but one (peribronchial) inflammation criteria; pulmonary cytokine/chemokine levels compared to infected mice treated with H2O (hMPV strain C-85473 [4]; day 5 post infection, Luminex): increased levels of IL-4, IL-12(p40) and MCP-1; pulmonary cytokine/chemokine levels compared to mice treated with the control peptide (hMPV strain C-85473 [4]; day 5 post infection, Luminex): increased levels of IL-4, KC, MCP-1 and MIP-1α; weight loss (hMPV strain C-85473 [5]; 5-day treatment started 24 h post infection, vs infected/untreated mice (FIG. 13), listed as PAR1 agonist): more weight loss than infected/untreated mice; pulmonary viral titers, treatment started simultaneously vs 24 h post infection (hMPV strain C-85473 [5]; day 5 post infection): No significant difference; mice that reached the humane endpoint (hMPV strain C-85473 [7]; 50 μM): One out of 6; difference in weight loss vs infected untreated mice (hMPV strain C-85473 [7]; 500 μM): significant on days 5 through 7; mice that reached the humane endpoint (hMPV strain C-85473 [7]; 500 μM): 3 out of 6
FTLLR-NH2 [control peptide, FTLLR-NH2] | – | – | – | – | – | – | In none of the uninfected groups significant weight loss or symptoms were observed | – | – | – | –
C[C@]12C[C@H](O)[C@H]3[C@@H](CCC4=CC(=O)CC[C@@]43C)[C@@H]1CC[C@@H]2C(=O)CO [corticosterone] | minimal benefit | – | – | – | – | – | – | – | – | – | –
CC(C)c1ccc(Cn2ccc3c4c(N)nc(NC5CC5)nc4ccc32)cc1 [PAR-1 antagonist, N3-cyclopropyl-7-{[4(I-methylethyl)phenyl]methyl)-7H-pyrrolo[3,2-f]quinazoline-I,3-diamine] | – | no pulmonary inflammation was observed | reduced pulmonary viral titers | abolished all weight loss and symptoms | significant reduced weight loss | lost less weight than infected/untreated mice and weight loss started at a later time point | In none of the uninfected groups significant weight loss or symptoms were observed | significant (though not dose-dependent) reduction | no significant difference in cytokine expression | dose dependent reduction in weight loss | pulmonary inflammatory cytokine/chemokine levels compared to all other groups of infected mice (hMPV strain C-85473 [4]; day 5 post infection, Luminex): significant reduction in all of the evaluated inflammatory cytokine/chemokine levels; weight loss (hMPV strain C-85473 [5]; 5-day treatment started 24 h post infection, vs infected/untreated mice (FIG. 13), listed as PAR1 antagonists): started losing weight later and lost less weight than untreated infected mice, although the difference was not found to be statistically significant; pulmonary viral titers (hMPV strain C-85473 [5]; day 5 post infection, treatment simultaneous or started 24 h post infection, vs infected/untreated): reduction in pulmonary viral titers; lung viral titers (hRSV strain 15 595): significantly reduced viral titers
